Source: ChEMBL document CHEMBL1152039, “PIPERIDINE CARBOXYLIC ACID DERIVATIVES AS SIALYL LEWIS X MIMETICS” (Bioorg Med Chem Lett, 1997)

Experiments:
Oryctolagus cuniculus [1] = species on record: Oryctolagus cuniculus; experiment: Percent incidence of heart arrhythmia and Ventricular fibrillation in isolated rabbit hearts at a concentration of 1 uM.; type: functional
HL-60 [2] = experiment: Tested for the inhibition of HL60 cell adhesion to recombinant E-selectin-IgG fusion protein measured by cell culture assay.; type: functional, cell-based; conditions: Homo sapiens
Rattus norvegicus [3] = experiment: Tested for the inhibition of leukocyte adhesion in rat mesenteric venules in vivo at a dose of 10 mg/kg measured by intravital microscopy.; type: functional
HL-60 [4] = experiment: Tested for the inhibition of HL60 cell adhesion to recombinant P-selectin-IgG fusion protein measured by cell culture assay.; type: functional, cell-based; conditions: Homo sapiens
Rattus norvegicus [5] = experiment: Tested for the inhibition of leukocyte adhesion in rat mesenteric venules in vivo at a dose of 1 mg/kg measured by intravital microscopy.; type: functional
Rattus norvegicus [6] = experiment: Tested for the inhibition of leukocyte adhesion in rat mesenteric venules in vivo at a dose of 3 mg/kg measured by intravital microscopy.; type: functional
Oryctolagus cuniculus [7] = species on record: Oryctolagus cuniculus; experiment: Percent incidence of heart arrhythmia and Ventricular fibrillation in isolated rabbit hearts at a concentration of 3 uM.; type: functional

| Compound | IC50 (HL-60 [2]) [mM] | IC50 (HL-60 [4]) [mM] | Incidence (Oryctolagus cuniculus [1]) [%] | inhibition in vivo at 10 mg/kg (Rattus norvegicus [3]) [%] | inhibition in vivo at 1 mg/kg (Rattus norvegicus [5]) [%] | inhibition in vivo at 3 mg/kg (Rattus norvegicus [6]) [%] | Incidence (Oryctolagus cuniculus [7]) [%] |
| --- | --- | --- | --- | --- | --- | --- | --- |
| CC1OC(OC2CCCCC2OC(=O)N2CCC(C(=O)O)CC2)C(O)C(O)C1O (centres undefined) | > 5 | > 5 | 50 | 81 | 64 | 69 |  |
| CC(=O)N[C@H]1[C@H]([C@@H](O)[C@@H](O)CO)O[C@@](O[C@@H]2[C@H](O)[C@H](O[C@H]3[C@H](O[C@@H]4O[C@@H](C)[C@@H](O)[C@H](O)[C@@H]4O)[C@H](NC(C)=O)C(O)O[C@H]3CO)O[C@@H](CO)[C@@H]2O)(C(=O)O)C[C@H]1O (some centres undefined) |  |  |  | 63 | 57 |  | 50 |
| CC1OC(OC2CCCCC2OC(=O)N2CCC(C(=O)O)(C(=O)O)CC2)C(O)C(O)C1O (centres undefined) | 1.6 | 7.5 | 50 |  |  | 49 |  |

Continued, in another order:

| IC50 (HL-60 [2]) [mM] | IC50 (HL-60 [4]) [mM] | Compound | Incidence (Oryctolagus cuniculus [1]) [%] | inhibition in vivo at 10 mg/kg (Rattus norvegicus [3]) [%] | inhibition in vivo at 1 mg/kg (Rattus norvegicus [5]) [%] | inhibition in vivo at 3 mg/kg (Rattus norvegicus [6]) [%] | Incidence (Oryctolagus cuniculus [7]) [%] |
| --- | --- | --- | --- | --- | --- | --- | --- |
| 5 | > 10 | O=C(O)C1CCN(C(=O)O[C@@H]2CCCC[C@H]2O[C@@H]2O[C@@H](CO)[C@H](O)[C@H](O)[C@H]2O)CC1 |  |  |  | 38 |  |
| > 10 | > 10 | O=C(O)C1CCN(C(=O)O[C@@H]2CCCC[C@H]2O[C@H]2O[C@@H](CO)[C@@H](O)[C@H](O)[C@H]2O)CC1 |  |  |  | 56 |  |
